This passage reports T/C results from PubChem BioAssay AID330 (DTP/NCI, 2004).

This assay relates to P388 leukemia ip, CD2F1 mice, survival T/C. Kind of assay: NCI In Vivo Anticancer Drug Screen. Data for tumor model P388 Leukemia (intraperitoneal) in CD2F1 (CDF1) mice. Particulars: endpoint: median survival time, higher = longer survival. The essentials: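 Mice carrying the transplanted tumor received test compound or vehicle. Survival was recorded in each group, and the value is the treated-group measurement divided by that of the vehicle-treated control group.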

Where [1] appears, read: dose: 60.0 mg/kg/injection, schedule: Q01DX005 (ip), vehicle: Klucel (hydroxypropylcellulose) (HPC).
Setting [2] is: dose: 60.0 mg/kg/injection, schedule: Q01DX005 (ip), vehicle: saline with Tween-80.
Setting [3] is: dose: 120.0 mg/kg/injection, schedule: Q01DX005 (ip), vehicle: saline with Tween-80.
The mark [4] stands for this setting: dose: 240.0 mg/kg/injection, schedule: Q01DX005 (ip), vehicle: saline with Tween-80.
Where [5] appears, read: dose: 25.0 mg/kg/injection, schedule: Q01DX009 (ip), vehicle: other.
Where [6] appears, read: dose: 50.0 mg/kg/injection, schedule: Q01DX009 (ip), vehicle: other.
[7] abbreviates: dose: 100.0 mg/kg/injection, schedule: Q01DX009 (ip), vehicle: other.
Setting [8] is: dose: 200.0 mg/kg/injection, schedule: Q01DX009 (ip), vehicle: other.
[9] abbreviates: dose: 400.0 mg/kg/injection, schedule: Q01DX009 (ip), vehicle: other.
Setting [10] is: dose: 50.0 mg/kg/injection, schedule: Q01DX005 (ip), vehicle: saline with Tween-80.
[11] abbreviates: dose: 50.0 mg/kg/injection, schedule: Q01DX009 (ip), vehicle: saline with Tween-80.
Setting [12] is: dose: 100.0 mg/kg/injection, schedule: Q01DX009 (ip), vehicle: saline with Tween-80.

Molecules are shown by their SMILES. “And” between values parts separate entries of the source, which are not always exact repeats. Equal entries are not always repeated. Inconclusive results and toxic doses are left out.

As to `Cc1nnc2n(N)c(=O)c(CC(=O)c3ccc(F)cc3)nn12`, the T/C under setting [1] is 96 % of control; the T/C (dose: 120.0 mg/kg/injection, schedule: Q01DX005 (ip), vehicle: Klucel (hydroxypropylcellulose) (HPC)) was 88 % of control; the T/C (dose: 240.0 mg/kg/injection, schedule: Q01DX005 (ip), vehicle: Klucel (hydroxypropylcellulose) (HPC)) was 90 % of control.
`CC(=O)OCC12C(=O)C(O)C(C)C3(CC(c4ccoc4)OC3OC(C)=O)C1CCCC21CO1` (stereo unspecified): the T/C by setting is: (dose: 15.0 mg/kg/injection, schedule: Q01DX005 (ip), vehicle: Klucel (hydroxypropylcellulose) (HPC)) 105 % of control; (dose: 30.0 mg/kg/injection, schedule: Q01DX005 (ip), vehicle: Klucel (hydroxypropylcellulose) (HPC)) 105 % of control; under setting [1], 100 % of control.
Turning to `Cc1nc2ccccc2nc1N`, the T/C by setting is: under setting [2], 94 % of control; under setting [3], 98 % of control; under setting [4], 98 % of control.
For the molecule `CCN(CC)CCOC(=O)c1ccc(NC(=O)COc2ccc3ccccc3c2)cc1`, the T/C under setting [5] is 88 % of control and 97 % of control; the T/C under setting [6] was 88 % of control and 102 % of control; the T/C under setting [7] is 86 % of control and 105 % of control; the T/C under setting [8] was 102 % of control and 97 % of control; the T/C under setting [9] is 100 % of control and 109 % of control.
For `CCOC(=O)C1=C(C)NC(C)=C(C(=O)OCC)C1(C)C`, the T/C reads like this: under setting [10], 104 % of control; (dose: 100.0 mg/kg/injection, schedule: Q01DX005 (ip), vehicle: saline with Tween-80) 100 % of control; (dose: 200.0 mg/kg/injection, schedule: Q01DX005 (ip), vehicle: saline with Tween-80) 100 % of control.
Take `CN(C)CCNc1ccc(CO)c2sc3ccccc3c(=O)c12`: the T/C is 93 % of control and 94 % of control (dose: 25.0 mg/kg/injection, schedule: Q01DX005 (ip), vehicle: saline with Tween-80); 101 % of control and 114 % of control under setting [10].
Turning to `COc1cccc(C2NC(=S)NC(=O)C2C#N)c1` (stereo unspecified), the T/C reads like this: (dose: 50.0 mg/kg/injection, schedule: Q01DX009 (ip), vehicle: Klucel (hydroxypropylcellulose) (HPC)) 98 % of control; (dose: 100.0 mg/kg/injection, schedule: Q01DX009 (ip), vehicle: Klucel (hydroxypropylcellulose) (HPC)) 98 % of control; (dose: 200.0 mg/kg/injection, schedule: Q01DX009 (ip), vehicle: Klucel (hydroxypropylcellulose) (HPC)) 94 % of control.
As to `COc1ccc2c(c1OC)C(CC(=O)O)N1CCc3cc4c(cc3C1C2)OCO4` (stereo unspecified), the T/C by setting is: (dose: 0.63 mg/kg/injection, schedule: Q01DX009 (ip), vehicle: distilled water + Tween-80) 103 % of control; (dose: 1.25 mg/kg/injection, schedule: Q01DX009 (ip), vehicle: distilled water + Tween-80) 99 % of control; (dose: 2.5 mg/kg/injection, schedule: Q01DX009 (ip), vehicle: distilled water + Tween-80) 106 % of control; (dose: 5.0 mg/kg/injection, schedule: Q01DX009 (ip), vehicle: distilled water + Tween-80) 101 % of control; (dose: 10.0 mg/kg/injection, schedule: Q01DX009 (ip), vehicle: distilled water + Tween-80) 106 % of control; (dose: 20.0 mg/kg/injection, schedule: Q01DX009 (ip), vehicle: distilled water + Tween-80) 94 % of control.
In the case of `CCCCCCCCCCCCCCCCCC(=O)Nc1ccn(C2OC(CO)C(O)C2O)c(=O)n1` (stereo unspecified), the T/C is 196 % of control (dose: 6.25 mg/kg/injection, schedule: Q01DX009 (ip), vehicle: saline with Tween-80); 177 % of control and 227 % of control (2×) (dose: 12.5 mg/kg/injection, schedule: Q01DX009 (ip), vehicle: saline with Tween-80); 113 % of control and 267 % of control and 270 % of control (dose: 25.0 mg/kg/injection, schedule: Q01DX009 (ip), vehicle: saline with Tween-80); 195 % of control and 267 % of control and 270 % of control under setting [11]; 86 % of control and 92 % of control under setting [12].
Regarding `CCOC(=O)C(C#N)C1(O)C(=O)Nc2ccccc21` (stereo unspecified), the T/C runs as follows: (dose: 50.0 mg/kg/injection, schedule: Q01DX005 (ip), vehicle: Klucel (hydroxypropylcellulose) (HPC)) 104 % of control; (dose: 100.0 mg/kg/injection, schedule: Q01DX005 (ip), vehicle: Klucel (hydroxypropylcellulose) (HPC)) 102 % of control; (dose: 200.0 mg/kg/injection, schedule: Q01DX005 (ip), vehicle: Klucel (hydroxypropylcellulose) (HPC)) 103 % of control.
As for `CC1(OC(=O)c2ccc(Cl)cc2)CC(C)(C)[N+]([O-])=N1` (stereo unspecified), the T/C is, setting by setting: (dose: 12.5 mg/kg/injection, schedule: Q01DX009 (ip), vehicle: other) 103 % of control; under setting [5], 99 % of control; under setting [6], 99 % of control; under setting [7], 96 % of control; under setting [8], 99 % of control.
With `CCCCCCCCCCSCC(N)C(=O)O` (stereo unspecified), the T/C was 89 % of control under setting [6], 88 % of control under setting [7], 94 % of control under setting [8] and 99 % of control under setting [9].
As for `C=C(C)C12CC(COC(=O)c3ccccc3)C34OC5(OC1C3C1OC1(COC(=O)CCCCCCCCCCCCCCC)C(O)C1(O)C(OC(=O)c3ccccc3)C(C)C(C(C)CCCCCCC5O)C14)O2` (stereo unspecified), the T/C was 103 % of control (dose: 12.5 micrograms/kg/injection, schedule: Q01DX009 (ip), vehicle: saline); 103 % of control (dose: 25.0 micrograms/kg/injection, schedule: Q01DX009 (ip), vehicle: saline); 99 % of control (dose: 50.0 micrograms/kg/injection, schedule: Q01DX009 (ip), vehicle: saline).
Regarding `O=C(O)/C=C/C(=O)OCCBr`, the T/C by setting is: under setting [11], 104 % of control; (dose: 50.0 mg/kg/injection, schedule: Q04DX003 (ip), vehicle: saline with Tween-80) 120 % of control; under setting [12], 100 % of control; (dose: 100.0 mg/kg/injection, schedule: Q04DX003 (ip), vehicle: saline with Tween-80) 120 % of control; (dose: 200.0 mg/kg/injection, schedule: Q01DX009 (ip), vehicle: saline with Tween-80) 95 % of control; (dose: 200.0 mg/kg/injection, schedule: Q04DX003 (ip), vehicle: saline with Tween-80) 100 % of control.
On to `CNC(=S)N/N=C\C(C)=N/Nc1ccc(F)cc1`, for which the T/C by setting is: (dose: 100.0 mg/kg/injection, schedule: Q04DX003 (ip), vehicle: saline) 99 % of control; (dose: 200.0 mg/kg/injection, schedule: Q04DX003 (ip), vehicle: saline) 99 % of control; (dose: 400.0 mg/kg/injection, schedule: Q04DX003 (ip), vehicle: saline) 94 % of control.
As to `CCC(c1ccc(OC)cc1)C(NCC(=O)NNC(=O)CNC(c1ccc(OC)cc1)C(CC)c1ccc(OC)cc1)c1ccc(OC)cc1` (stereo unspecified), the T/C reads like this: (dose: 200.0 mg/kg/injection, schedule: Q04DX002 (ip), vehicle: saline with Tween-80) 86 % of control; (dose: 400.0 mg/kg/injection, schedule: Q04DX002 (ip), vehicle: saline with Tween-80) 92 % of control.
For `CC(=O)Nc1cccc2c1C(=O)c1nccnc1C2=O`, the T/C is, setting by setting: (dose: 12.5 mg/kg/injection, schedule: Q04DX002 (ip), vehicle: Klucel + Tween-80) 99 % of control; (dose: 25.0 mg/kg/injection, schedule: Q04DX002 (ip), vehicle: Klucel + Tween-80) 98 % of control; (dose: 50.0 mg/kg/injection, schedule: Q04DX002 (ip), vehicle: Klucel + Tween-80) 91 % of control.
Consider `Nc1nnc(-c2ccccc2S)o1`, for which the T/C is, setting by setting: under setting [2], 103 % of control; under setting [3], 108 % of control; under setting [4], 110 % of control.
The like results for `Nc1nc(N)c2nc3c(ccc4ccccc43)nc2n1` were, in that order, 94 % of control, 96 % of control and 104 % of control.
Take `NS(=O)(=O)c1ccc(Nc2c3ccccc3nc3ncccc23)cc1`: the T/C is 92 % of control (dose: 7.5 mg/kg/injection, schedule: Q01DX005 (ip), vehicle: saline with Tween-80); 91 % of control (dose: 15.0 mg/kg/injection, schedule: Q01DX005 (ip), vehicle: saline with Tween-80); 92 % of control (dose: 30.0 mg/kg/injection, schedule: Q01DX005 (ip), vehicle: saline with Tween-80).
Turning to `Clc1ccc(N=Cc2ccc(C=Nc3ccc(Cl)cc3Cl)cc2)c(Cl)c1`, the T/C is 94 % of control (dose: 12.5 mg/kg/injection, schedule: Q01DX009 (ip), vehicle: saline); 94 % of control (dose: 25.0 mg/kg/injection, schedule: Q01DX009 (ip), vehicle: saline); 100 % of control and 105 % of control (dose: 50.0 mg/kg/injection, schedule: Q01DX009 (ip), vehicle: saline); 88 % of control (dose: 100.0 mg/kg/injection, schedule: Q01DX009 (ip), vehicle: saline); 92 % of control (dose: 200.0 mg/kg/injection, schedule: Q01DX009 (ip), vehicle: saline).
